# How the values were obtained:
# Test in all cases: Uptake of Pc 4, flow cytometry
# Type in all cases: cell-based, murine
# ABE-8.1/2 cells = conditions: for Pc 4 content / Pc 4 content per cell volume: 15 nM
# Protocol: (§1) Cell lines and culture conditions. WEHI-3 (murine myelocytic leukemia), L1210 (murine lymphocytic leukemia) and P815 (murine mastocytoma) cells were grown in RPMI 1640 (GibcoBRL, Grand Island, N.Y.) supplemented with 10% FBS. BC3A (murine leukemia) cells were grown in RPMI 1640 supplemented with 10 μM β-mercaptoethanol and 10% FBS; ABE-8.1/2 (murine pre-B lymphoma) cells were grown in DMEM (GibcoBRL)--10 μM β-mercaptoethanol--10% FBS. All cell lines were obtained from the American Type Culture Collection (Rockville, Md.) and were cultured at 37° C. in a humidified 5% CO2 -incubator. Prior to incubation with Pc 4, the cell lines were centrifuged and resuspended in phosphate buffered saline (PBS)--10% FBS, pH 7.4.
# (§2) In mixing experiments, aliquots of Ly-5.2 BM and cell lines samples were mixed at different ratios. The combined cell concentration of each sample was 1.5×10^7 cells/mL. […] The cell lines were stained with anti-Ly-5.1^FITC. This treatment allowed clear resolution of the relatively small ABE-8.1/2 and BC3A cells from the bone marrow granulocytes. Immediately prior to the analyses, propidium iodide (PI, 0.5 μg/mL) was added to the samples to allow exclusion of dead cells (PI^+) from the analyses. The samples were analyzed in a FACStar^PLUS (BD) that was equipped with an argon ion laser tuned to 488 nm (200 mW) and a dye laser tuned to 610 nm (300 mW). FITC, PE, PI and Pc 4 fluorescence emissions were collected through 530/30, 575/42, 660/10, 670/10 nm band pass filters, respectively.
# (§3) Cell size. Microscopic measurements of at least 20 cells were performed using a calibrated micrometer. To determine the cell size of the BM progenitor subsets, the c-kit^+,Sca-1^- and c-kit^+,Sca-1^+ fractions were sorted. The sorted cells were centrifuged and the pellets were resuspended in a 20 μl of HBBS. Samples were deposited onto microscope slides and covered with a cover slip. Cell diameters of 7.7±0.2 (c-kit^+,Sca-1^+), 8.4±0.3 (c-kit^+,Sca-1^-), 10.9±0.2 (BC3A), 11.1±0.2 (ABE-8.1/2), 13.0±0.3 (L1210), 14.2±0.3 (P815), 15.0±0.4 μm (WEHI-3) were obtained.
# BC3A cells = test system: BC3A cells
# Protocol: as §1, §2, §3
# L1210 cells = conditions: for Pc 4 content / Pc 4 content per cell volume: 15 nM
# Protocol: as §1, §2, §3
# P815 cells = conditions: for Pc 4 content / Pc 4 content per cell volume: 15 nM
# Protocol: as §1, §2, §3
# WEHI-3 cells = conditions: for Pc 4 content / Pc 4 content per cell volume: 15 nM
# Protocol: as §1, §2, §3
# [1] = 1.5×10^6 cells/ml during incubation
# [2] = 1.5×10^7 cells/ml during incubation
# [3] = from 8.0×10^5 to 1.5×10^7 cells/mL
# [4] = 15 nM, 1.5×10^6 cells/ml during incubation
# [5] = 15 nM, 1.5×10^7 cells/ml during incubation
smiles,measurement,setting,value
"CN(C)CCC[Si](C)(C)O[Si]1(O)n2c3c4ccccc4c2N=C2N=C(N=c4c5ccccc5c(n41)=NC1=NC(=N3)c3ccccc31)c1ccccc12 (centres unmarked) [Pc 4, hydroxysiloxy-dimethylpropyl-N-dimethyl silicon phthalocyanine]",Pc 4 content,ABE-8.1/2 cells; [1],218 ± 29.0 Mean fluorescence/cell
same,Pc 4 content per cell volume,ABE-8.1/2 cells; [1],0.30 Mean fluorescence/μm^3
same,Pc 4 content,ABE-8.1/2 cells; [2],95 ± 7.6 Mean fluorescence/cell
same,Pc 4 content per cell volume,ABE-8.1/2 cells; [2],0.13 Mean fluorescence/μm^3
same,reduction of Pc 4 uptake,ABE-8.1/2 cells; [3],2.5 fold
same,cell concentration at which uptake reached a plateau,BC3A cells; 15 nM,8.0×10^5 cells/mL
same,Pc 4 content,BC3A cells; [4],137 ± 11.3 Mean fluorescence/cell
same,Pc 4 content per cell volume,BC3A cells; [4],0.20 Mean fluorescence/μm^3
same,Pc 4 content,BC3A cells; [5],80 ± 5.5 Mean fluorescence/cell
same,Pc 4 content per cell volume,BC3A cells; [5],0.12 Mean fluorescence/μm^3
same,reduction of Pc 4 uptake,BC3A cells; [3],1.6 fold
same,Pc 4 content,L1210 cells; [1],291 ± 14.0 Mean fluorescence/cell
same,Pc 4 content per cell volume,L1210 cells; [1],0.25 Mean fluorescence/μm^3
same,Pc 4 content,L1210 cells; [2],124 ± 4.2 Mean fluorescence/cell
same,Pc 4 content per cell volume,L1210 cells; [2],0.11 Mean fluorescence/μm^3
same,reduction of Pc 4 uptake,L1210 cells; [3],2.5 fold
same,Pc 4 content,P815 cells; [1],414 ± 21.5 Mean fluorescence/cell
same,Pc 4 content per cell volume,P815 cells; [1],0.28 Mean fluorescence/μm^3
same,Pc 4 content,P815 cells; [2],152 ± 17.2 Mean fluorescence/cell
same,Pc 4 content per cell volume,P815 cells; [2],0.10 Mean fluorescence/μm^3
same,reduction of Pc 4 uptake,P815 cells; [3],2.8 fold
same,Pc 4 content,WEHI-3 cells; [1],296 ± 8.5 Mean fluorescence/cell
same,Pc 4 content per cell volume,WEHI-3 cells; [1],0.17 Mean fluorescence/μm^3
same,Pc 4 content,WEHI-3 cells; [2],57 ± 4.7 Mean fluorescence/cell
same,Pc 4 content per cell volume,WEHI-3 cells; [2],0.03 Mean fluorescence/μm^3
same,reduction of Pc 4 uptake,WEHI-3 cells; [3],5.1 fold
